Reference: ChEMBL document CHEMBL5038615, “Discovery of a cinnamyl piperidine derivative as new neddylation inhibitor for gastric cancer treatment” (Eur J Med Chem, 2021)
The source made the active and inactive calls. The calls are words filed in the database; no cut-off is given here.

What was measured:
HepG2 = test: Antiproliferative activity against human HepG2 cells assessed as inhibition of cell proliferation measured after 72 hrs by MTT assay; type: functional, cell-based; conditions: HepG2, 72 h
MGC-803 [1] = test: Antiproliferative activity against human MGC-803 cells assessed as inhibition of cell proliferation at 0.39 to 50 uM measured upto 72 hrs by MTT assay; type: functional, cell-based; conditions: dose 0.39-50 µM, time hrs <=72
HGC-27 [2] = test: Inhibition of cell migration in human HGC-27 cells at 1.5 to 6 uM measured after 24 to 48 hrs by wound healing assay based inverted microscopic analysis; type: functional; conditions: dose 1.5-6 µM, time 24-48 hrs
MGC-803 [3] = test: Induction of apoptosis in human MGC-803 cells assessed as late apoptotic cells at 2.5 uM measured after 24 hrs by AnnexinV/FITC staining based flow cytometry method (reference value: 2%); type: functional
MGC-803 [4] = test: Induction of apoptosis in human MGC-803 cells assessed as necrotic cells at 2.5 uM measured after 48 hrs by AnnexinV/FITC staining based flow cytometry method (reference value: 0.2%); type: functional
MGC-803 [5] = test: Induction of apoptosis in human MGC-803 cells assessed as late apoptotic cells at 5 uM measured after 48 hrs by AnnexinV/FITC staining based flow cytometry method (reference value: 0.9%); type: functional
MGC-803 [6] = test: Induction of apoptosis in human MGC-803 cells assessed as necrotic cells at 5 uM measured after 48 hrs by AnnexinV/FITC staining based flow cytometry method (reference value: 0.2%); type: functional
MGC-803 [7] = test: Induction of apoptosis in human MGC-803 cells assessed as early apoptotic cells at 7.5 uM measured after 48 hrs by AnnexinV/FITC staining based flow cytometry method (reference value: 1.5%); type: functional
MGC-803 [8] = test: Induction of apoptosis in human MGC-803 cells assessed as necrotic cells at 7.5 uM measured after 48 hrs by AnnexinV/FITC staining based flow cytometry method (reference value: 0.2%); type: functional
HGC-27 [9] = test: Induction of apoptosis in human HGC-27 cells assessed as viable cells at 6 uM measured after 24 hrs by AnnexinV/FITC staining based flow cytometry method (reference value: 95.7%); type: functional; conditions: read-out: Activity
HGC-27 [10] = test: Induction of apoptosis in human HGC-27 cells assessed as necrotic cells at 6 uM measured after 24 hrs by AnnexinV/FITC staining based flow cytometry method (reference value: 1.2%); type: functional
HGC-27 [11] = test: Induction of apoptosis in human HGC-27 cells assessed as viable cells at 6 uM measured after 48 hrs by AnnexinV/FITC staining based flow cytometry method (reference value: 93.18%); type: functional; conditions: read-out: Activity
MGC-803 [12] = test: Induction of apoptosis in human MGC-803 cells assessed as reduction of mitochondrial membrane potential at 7.5 uM measured after 24 hrs by JC-1 staining based Flowcytometry assay (reference value: 3.8%); type: functional; design: scale not given: the % may be the effect or the level left
HGC-27 [13] = test: Induction of apoptosis in human HGC-27 cells assessed as reduction of mitochondrial membrane potential at 3 uM measured after 24 hrs by JC-1 staining based Flowcytometry assay (reference value: 2.4%); type: functional; design: scale not given: the % may be the effect or the level left
MGC-803 [14] = test: Induction of apoptosis in human MGC-803 cells assessed as upregulation of Bax at 2.5 to 7.5 uM measured after 24 hrs by Western blot assay; type: functional, cell-based; conditions: dose 2.5-7.5 µM
MGC-803 [15] = test: Induction of apoptosis in human MGC-803 cells assessed as upregulation of Bak at 2.5 to 7.5 uM measured after 24 hrs by Western blot assay; type: functional, cell-based; conditions: dose 2.5-7.5 µM
MGC-803 [16] = test: Induction of apoptosis in human MGC-803 cells assessed as down-regulation of Keap1 expression at 2.5 to 7.5 uM measured after 24 hrs by Western blot assay; type: functional, cell-based; conditions: dose 2.5-7.5 µM
MGC-803 [17] = test: Induction of apoptosis in human MGC-803 cells assessed as up-regulation of Nrf2 expression at 2.5 to 7.5 uM measured after 24 hrs by Western blot assay; type: functional, cell-based; conditions: dose 2.5-7.5 µM
MGC-803 [18] = test: Induction of apoptosis in human MGC-803 cells assessed as down-regulation of Nrf2 expression in nucleus at 2.5 to 7.5 uM measured after 24 hrs by Western blot assay; type: functional, cell-based; conditions: dose 2.5-7.5 µM
HGC-27 [19] = test: Induction of apoptosis in human HGC-27 cells assessed as upregulation of Bid at 3 to 9 uM measured after 24 hrs by Western blot assay; type: functional, cell-based; conditions: dose 3-9 µM
HGC-27 [20] = test: Induction of apoptosis in human HGC-27 cells assessed as upregulation of Bak at 3 to 9 uM measured after 24 hrs by Western blot assay; type: functional, cell-based; conditions: dose 3-9 µM
MGC-803 [21] = test: Induction of apoptosis in human MGC-803 cells assessed as ROS levels at 2.5 uM measured after 24 hrs by DCFH-DA staining based flow cytometry assay (reference value: 3.3%); type: functional
MGC-803 [22] = test: Induction of apoptosis in human MGC-803 cells assessed as ROS levels at 5 uM measured after 24 hrs by DCFH-DA staining based flow cytometry assay (reference value: 3.3%); type: functional
MGC-803 [23] = test: Induction of apoptosis in human MGC-803 cells assessed as ROS levels at 7.5 uM measured after 24 hrs by DCFH-DA staining based flow cytometry assay (reference value: 3.3%); type: functional
HGC-27 [24] = test: Induction of apoptosis in human HGC-27 cells assessed as ROS levels at 6 uM measured after 24 hrs by DCFH-DA staining based flow cytometry assay (reference value: 6.8%); type: functional
HGC-27 [25] = test: Induction of apoptosis in human HGC-27 cells assessed as upregulation of Bax at 3 to 9 uM measured after 24 hrs by Western blot assay; type: functional, cell-based; conditions: dose 3-9 µM
[26] = target: T1, NEDD8-activating enzyme E1 regulatory subunit (Homo sapiens) (UniProt Q13564); test: Inhibition of NAE-mediated neddylation in human MGC-803 cells assessed as cullin5-Nedd8 adduct formation at 2.5 to 7.5 uM measured after 24 hrs by western blot assay; type: cell-based; conditions: dose 2.5-7.5 µM
T1 sequence (whole entry): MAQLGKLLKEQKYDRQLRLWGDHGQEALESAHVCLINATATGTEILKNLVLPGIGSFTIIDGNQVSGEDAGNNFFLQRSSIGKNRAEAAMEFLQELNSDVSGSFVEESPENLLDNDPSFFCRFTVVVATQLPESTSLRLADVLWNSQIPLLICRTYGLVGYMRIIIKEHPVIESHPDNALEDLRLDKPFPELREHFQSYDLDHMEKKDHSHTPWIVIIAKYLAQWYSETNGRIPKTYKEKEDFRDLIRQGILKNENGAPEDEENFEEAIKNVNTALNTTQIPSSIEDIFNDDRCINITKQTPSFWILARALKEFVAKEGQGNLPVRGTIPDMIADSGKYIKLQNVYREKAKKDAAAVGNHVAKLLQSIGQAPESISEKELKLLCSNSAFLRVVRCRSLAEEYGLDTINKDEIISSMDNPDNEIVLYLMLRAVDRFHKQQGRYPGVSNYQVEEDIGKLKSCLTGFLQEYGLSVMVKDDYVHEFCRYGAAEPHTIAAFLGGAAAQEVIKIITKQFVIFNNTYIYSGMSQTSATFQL

[27] = target: T1, NEDD8-activating enzyme E1 regulatory subunit (Homo sapiens); test: Inhibition of NAE-mediated neddylation in human MGC-803 cells assessed as cullin4A-Nedd8 adduct formation at 2.5 to 7.5 uM measured after 24 hrs by western blot assay; type: cell-based; conditions: dose 2.5-7.5 µM
HGC-27 [28] = test: Induction of apoptosis in human HGC-27 cells assessed as late apoptotic cells at 3 uM measured after 24 hrs by AnnexinV/FITC staining based flow cytometry method (reference value: 2.4%); type: functional

Compound: CCCCCc1ccc(NC(=O)C2CCN(C/C=C/c3ccccc3)CC2)cc1
- IC50 (HepG2): 2890 nM
- Activity (MGC-803 [1]): Dose-Dependent Effect
- inhibition (HGC-27 [2]): Dose-Dependent Effect
- Activity (MGC-803 [3]): 3.6%
- Activity (MGC-803 [4]): 2.9%
- Activity (MGC-803 [5]): 51%
- Activity (MGC-803 [6]): 0.8%
- Activity (MGC-803 [7]): 4%
- Activity (MGC-803 [8]): 0%
- viability at 6 µM (HGC-27 [9]): 25.4%
- Activity (HGC-27 [10]): 0.2%
- viability at 6 µM (HGC-27 [11]): 45.8%
- Activity (MGC-803 [12]): 70%
- Activity (HGC-27 [13]): 4.4%
- Activity (MGC-803 [14]): Dose-Dependent Effect
- Activity (MGC-803 [15]): Dose-Dependent Effect
- Activity (MGC-803 [16]): Active
- Activity (MGC-803 [17]): Active
- Activity (MGC-803 [18]): Active
- Activity (HGC-27 [19]): Dose-Dependent Effect
- Activity (HGC-27 [20]): Dose-Dependent Effect
- Activity (MGC-803 [21]): 4%
- Activity (MGC-803 [22]): 5.4%
- Activity (MGC-803 [23]): 22.2%
- Activity (HGC-27 [24]): 14.5%
- Activity (HGC-27 [25]): Dose-Dependent Effect
- inhibition [26]: Active
- inhibition [27]: inactive
- Activity (HGC-27 [28]): 4.6%
